According to patent US6803359B2, “Inhibition of abnormal cell growth with corticotropin-releasing hormone analogs” (The Regents of the University of California, priority 1999, dated 2004):
Marks after values point to notes of the source that are not given here.

Assays:
[1] = in vivo, iv
Procedure: (§3) On the ordinate, the response is given in units of integrated blood pressure observed over a 100 minute period after the intravenous injection of the test substance is pentobarbital-anesthetized rats (no. of animals=8 per group per dose). The area-under-curve, is given in units of mm Hg per minute.

[2] = tested on: B16 melanoma; assay: Growth of subcutaneously transplanted B16 melanoma in mice (tumor volume by caliper); type: in vivo; conditions: 0.1 mg/kg s.c. on days 3 to 7
Procedure: (§1) This example illustrates the anti-cancer property of an inventive peptide with a D-amino acid as residue 20. Various tumor cells were transplanted into mice or rats and the tumor volume was measured using a caliper-ruler. The volume of the tumor, in cubic mm, was estimated as the long axis×the square of the short axis divided by 2.
In the experiment of Table 2, female mice, weighing 20-25 g, of a C57B1 line, were transplanted under the skin with B16 melanoma cells. After transplantation of tumors mice were mixed and divided into groups of controls, CRH-treated and [D-Glu^20] CRH-treated. The test substances at a dose of 0.1 mg/kg subcutaneously or the vehicle control (saline) was injected on days 3 to 7 after tumor transplantation, and the volume of tumors were measured at various days afterwards.

[3] = tested on: W256 rat mammary carcinoma; conditions: 100 micrograms/kg subcutaneously twice a day for 3 days; cited from earlier work
[4] = tested on: W256 cells; conditions: in vitro; cited from earlier work
[5] = tested on: Ehrlich solid carcinoma; assay: Growth of subcutaneously transplanted Ehrlich solid carcinoma in rats (tumor volume); type: in vivo; conditions: 0.1 mg/kg
Procedure: as §1
(§2) The second experiment and third experiment (data shown in Tables 3 and 4) were conducted on white non-inbred male rats with a subcutaneous transplant of Walker carcinosarcoma or Ehrlich solid carcinoma. Animals after transplantation of tumors were mixed and were divided into groups of controls, CRH-treated and [D-Glu^20] CRH-treated.

[6] = tested on: Walker carcinosarcoma; assay: Growth of subcutaneously transplanted Walker carcinosarcoma in rats (tumor volume); type: in vivo; conditions: 0.1 mg/kg
Procedure: as §1, §2

[7] = Hypotensive effect in pentobarbital-anesthetized male rats after i.v. injection; conditions: 0.05 mg/kg i.v.
Procedure: as §3

| Molecule | hypotensive activity compared with unmodified CRH (human/rat) control [1] | Volume of Tumors ([2]; day 10 after transplantation) | Volume of Tumors ([2]; day 12 after transplantation) | Volume of Tumors ([2]; day 14 after transplantation) | Volume of Tumors ([2]; day 17 after transplantation) | inhibition of growth of intracerebrally-injected W256 tumor cells [3] | antiproliferative effects in W256 cell cultures [4] | Volume of Tumors ([5]; day 9 after transplantation) | Volume of Tumors ([5]; day 11 after transplantation) | Volume of Tumors ([5]; day 14 after transplantation) | Volume of Tumors ([6]; day 7 after transplantation) [mm^3] | Volume of Tumors ([6]; day 10 after transplantation) [mm^3] | Volume of Tumors ([6]; day 12 after transplantation) [mm^3] | Volume of Tumors ([6]; day 14 after transplantation) [mm^3] | average fall in mean blood pressure over a 100 minute period [7] [mm Hg] | integrated blood pressure response (area-under-curve) over a 100 minute period [7] |
| --- | --- | --- | --- | --- | --- | --- | --- | --- | --- | --- | --- | --- | --- | --- | --- | --- |
| CC[C@H](C)[C@H](NC(=O)[C@@H](NC(=O)[C@H](CCC(=O)O)NC(=O)[C@H](CCSC)NC(=O)[C@H](CC(C)C)NC(=O)[C@H](CCCCN)NC(=O)[C@H](CCCNC(=N)N)NC(=O)[C@H](CC(N)=O)NC(=O)[C@H](CO)NC(=O)[C@H](Cc1c[nH]cn1)NC(=O)[C@H](C)NC(=O)[C@H](CCC(N)=O)NC(=O)[C@H](CCC(N)=O)NC(=O)[C@H](C)NC(=O)[C@H](CC(C)C)NC(=O)[C@H](CCC(N)=O)NC(=O)[C@H](CCC(=O)O)NC(=O)[C@H](C)NC(=O)[C@H](CCCNC(=N)N)NC(=O)[C@H](C)NC(=O)[C@H](CCSC)NC(=O)[C@@H](CCC(=O)O)NC(=O)[C@H](CC(C)C)NC(=O)[C@@H](NC(=O)[C@H](CCC(=O)O)NC(=O)[C@H](CCCNC(=N)N)NC(=O)[C@H](CC(C)C)NC(=O)[C@H](CC(C)C)NC(=O)[C@H](Cc1c[nH]cn1)NC(=O)[C@H](Cc1ccccc1)NC(=O)[C@@H](NC(=O)[C@H](CC(C)C)NC(=O)[C@H](CC(=O)O)NC(=O)[C@H](CC(C)C)NC(=O)[C@H](CO)NC(=O)[C@@H](NC(=O)[C@@H]1CCCN1C(=O)[C@@H]1CCCN1C(=O)[C@H](CCC(=O)O)NC(=O)[C@H](CCC(=O)O)NC(=O)[C@@H](N)CO)[C@@H](C)CC)[C@@H](C)O)C(C)C)[C@@H](C)CC)C(N)=O [[D-Glu^20] CRH] | much less hypotensive activity |  |  |  |  |  |  |  |  |  |  |  |  |  |  |  |
| hCRH: unmodified human/rat corticotropin-releasing hormone, 41-residue C-terminally amidated peptide, SEQ ID NO 1 |  | 29 + 7* mm^3 | 157 + 23* mm^3 | 133 + 15* mm^3 | 238 + 41 mm^3 | significant inhibition of growth | antiproliferative effects | 226 ± 14* mm^3 | 384 ± 61* mm^3 | 763 ± 114* mm^3 | 196 | 3600 ± 413 | 6942 | 10832 | 72 | approximately 7200 mm Hg-min |
